# Literature values, collected in patent publication US8858963B1, “Tamper resistant composition comprising hydrocodone and acetaminophen for rapid onset and extended duration of analgesia” (Mallinckrodt LLC, priority 2011, dated 2014).
# Tested on: hepatic GSH
# Conditions: Swiss mice
smiles,measurement,setting,value
CC(=O)Nc1ccc(O)cc1 [acetaminophen],onset of circulating hepatic GSH changes after administration,acetaminophen 100 mg/kg to 600 mg/kg,≤ 15 min
same,time of minimum GSH level after injection,all dose groups (100 mg/kg to 600 mg/kg),2 h
